Test results as given in patent US20230097866A1, “BACTERIAL TOPOISOMERASE INHIBITORS DERIVED FROM ISOMANNIDE” (Ohio State Innovation Foundation, priority 2020, published 2023).
≈ marks a conversion by molar mass, not a printed value. Read-outs that look alike come from different tables or passages of the source.

Experiments:
[1] = target: T1, CYP3A4 (Homo sapiens, UniProt P08684); assay: CYP450 inhibition in human liver microsomes, CYP3A4; format: in vitro ADME; settings: both sexes
T1 construct: incubated with human liver microsomes (mixed gender, pool of 50 donors, 0.1 mg/mL); from tissue; host or cells: human liver microsomes, pool of 50 donors
Protocol: CYP450 inhibition assays was conducted using individual enzyme substrates and inhibitors instead of a cocktail to avoid interferences. CYP450 isoforms tested included the following: CYP1A2, CYP2B6, CYP2C8, CYP2C9, CYP2C19, CYP2D6, and CYP3A4. […] Each test compound was incubated with human liver microsomes (mixed gender, pool of 50 donors, 0.1 mg/mL), CYP450-selective probe substrates, and co-factors (NADPH, MgCl2) in phosphate buffer (pH 7.4) for 10-30 min in a 96-well plate at 37° C. The reactions were stopped by transferring the reaction mixture to acetonitrile/methanol. Samples were mixed and centrifuged, and the supernatants analyzed by LC-MS/MS to quantify percent inhibition relative to vehicle control.

[2] = target: T2, CYP2D6 (Homo sapiens, UniProt P10635); assay: CYP450 inhibition in human liver microsomes, CYP2D6; format: in vitro ADME; settings: 10 μM
T2 construct: incubated with human liver microsomes (mixed gender, pool of 50 donors, 0.1 mg/mL); from tissue; host or cells: human liver microsomes, pool of 50 donors
Protocol: CYP450 inhibition assays was conducted using individual enzyme substrates and inhibitors instead of a cocktail to avoid interferences. CYP450 isoforms tested included the following: CYP1A2, CYP2B6, CYP2C8, CYP2C9, CYP2C19, CYP2D6, and CYP3A4. Each test compound was screened at a final concentration of 10 μM. Each test compound was incubated with human liver microsomes (mixed gender, pool of 50 donors, 0.1 mg/mL), CYP450-selective probe substrates, and co-factors (NADPH, MgCl2) in phosphate buffer (pH 7.4) for 10-30 min in a 96-well plate at 37° C. The reactions were stopped by transferring the reaction mixture to acetonitrile/methanol. Samples were mixed and centrifuged, and the supernatants analyzed by LC-MS/MS to quantify percent inhibition relative to vehicle control.

[3] = test system: S. aureus ATCC 29213; assay: microbe, parasite or virus in culture; format: cell-based; settings: Staphylococcus aureus, ATCC29213, read-out: S. aureus ATCC 29213 MIC (n = 2); CLSI agar dilution
Protocol: In order to determine the spontaneous mutation frequency of investigational agents (Table 4), the MIC was first determined using the agar dilution method as recommended by the Clinical and Laboratory Standards Institute.
Triplicate independent inocula of S. aureus ATCC 29213 were evaluated.

[4] = target: hERG (Homo sapiens, UniProt Q12809); assay: hERG IC50, IonWorks Barracuda (Charles River); settings: 6 versus 24
Excerpt: The design of these isomannide-detived NBTIs focused on enhanced polarity and modulation of basicity through the two electronegative oxygen atoms in the linker.

[5] = target: S. aureus DNA gyrase (Staphylococcus aureus, UniProt P20831); assay: Inhibition of DNA gyrase, biochemical assay (Inspiralis); settings: S. aureus DNA gyrase; Inspiralis, Ltd.; read-out: Gyrase IC50
[6] = test system: Escherichia coli ATCC 25922; assay: MIC panel (Laboratory Specialists, Inc.), E. coli; format: cell-based; settings: ATCC25922, read-out: MIC Escherichia coli ATCC 25922 (n = 2), Cmpd. 6, CLSI broth microdilution
[7] = target: T3, Nav1.5 Late Current Human Ion Channel (Homo sapiens, UniProt Q14524); assay: Nav1.5 late current agonist QPatch CiPA assay; format: cell-based; settings: normalized to ATXII response
T3 construct: expressed in transfected cells
Excerpt: Early drug discovery programs commonly assess hERG inhibition as the only indicator of potential cardiovascular safety concerns. Researchers have recently recommended a more rigorous evaluation of multiple cardiac ion channels to provide a more comprehensive cardiovascular risk assessment (Fermini, B., et al., A New Perspective in the Field of Cardiac Safety Testing through the Comprehensive In Vitro Proarrhythmia Assay Paradigm. J. Biomolec. Screening 2016, 21, 1-11). Given the promising initial results for 6, further evaluation was undertaken (in duplicate) in a Comprehensive in vitro Proarrhythmia Assay (CiPA) eight assay panel run on the QPatch HT (Sophion, Denmark) automated patch clamp system at three concentrations (3, 30, and 100 μM). All data were filtered for seal quality, seal drop, and current amplitude. A stock solution of the test compound at 30 mM concentration was prepared in DMSO.
The parameters measured were the degree of activation of inward current (charge) evoked on stepping to −15 mV from the test pulse. The peak and ramp current (charge) amplitude was calculated before and after compound addition and the amount of current (charge) was assessed by dividing the Test compound current (charge) by the Control current (charge). Control is the mean hNav1.5 late current (charge) collected 15 seconds at the end of the control; Test Compound is the mean hNav1.5 current (charge) collected in the presence of test compound at each concentration. Changes in charge were normalized to the maximum response of the EC50 of ATXII (positive control).

[8] = target: Norepinephrine transporter (Homo sapiens, UniProt P23975); assay: Off-target safety panel, norepinephrine transporter; format: binding; settings: duplicate, read-out: % Inhibition at 100 μM conc., Norepinephrine transporter
Protocol: (§1) Potential off-target pharmacology for compound 6 was also evaluated by screening in duplicate against a panel (Bowes, J., et al., Reducing Safety-Related Drug Attrition: The Use of in vitro Pharmacological Profiling. Nat. Rev. Drug Disc. 2012, 11, 909-922) of 44 receptors, enzymes, etc. Of the 44 potential targets, only five were inhibited by >50% at a concentration of 100 μM (Table 7).

[9] = test system: MRSADRL-3161; assay: MIC panel (Laboratory Specialists, Inc.), MRSA; format: cell-based; settings: Staphylococcus aureus; Cmpd. 6; CLSI broth microdilution
[10] = test system: Enterococcus faecium LSI-3340; assay: MIC panel (Laboratory Specialists, Inc.), E. faecium LSI-3340; format: cell-based; settings: LSI3340, Cmpd. 6, vancomycin-resistant strain
[11] = target: Histamine H2 (Homo sapiens, UniProt P25021); assay: Off-target safety panel, Histamine H2; format: binding; settings: duplicate, read-out: % Inhibition at 100 μM conc., Histamine H2
Protocol: as §1

[12] = liver microsomes, pH 7.4, probe midazolam, Exp. 1, read-out: CYP3A4 (midazolam hydroxylase) % of control (Exp. 1)
[13] = liver microsomes, pH 7.4, probe midazolam, Exp. 2, read-out: CYP3A4 (midazolam hydroxylase) % of control (Exp. 2)
[14] = liver microsomes, pH 7.4, probe midazolam, Exp. 3, read-out: CYP3A4 (midazolam hydroxylase) % of control (Exp. 3)

T1 sequence (P08684 whole entry): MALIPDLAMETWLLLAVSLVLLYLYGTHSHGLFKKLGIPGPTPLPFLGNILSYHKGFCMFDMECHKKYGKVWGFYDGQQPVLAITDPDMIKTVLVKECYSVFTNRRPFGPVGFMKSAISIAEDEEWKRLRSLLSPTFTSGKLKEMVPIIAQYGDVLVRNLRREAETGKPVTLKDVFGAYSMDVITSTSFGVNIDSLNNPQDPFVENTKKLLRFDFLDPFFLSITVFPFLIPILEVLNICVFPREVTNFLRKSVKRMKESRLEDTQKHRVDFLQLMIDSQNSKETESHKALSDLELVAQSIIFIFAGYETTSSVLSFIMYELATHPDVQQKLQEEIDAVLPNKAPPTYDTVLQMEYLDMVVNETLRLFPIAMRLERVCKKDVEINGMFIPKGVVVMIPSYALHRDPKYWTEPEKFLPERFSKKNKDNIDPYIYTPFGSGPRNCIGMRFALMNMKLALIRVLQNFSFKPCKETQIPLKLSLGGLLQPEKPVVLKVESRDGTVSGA
T3 sequence (Q14524 whole entry): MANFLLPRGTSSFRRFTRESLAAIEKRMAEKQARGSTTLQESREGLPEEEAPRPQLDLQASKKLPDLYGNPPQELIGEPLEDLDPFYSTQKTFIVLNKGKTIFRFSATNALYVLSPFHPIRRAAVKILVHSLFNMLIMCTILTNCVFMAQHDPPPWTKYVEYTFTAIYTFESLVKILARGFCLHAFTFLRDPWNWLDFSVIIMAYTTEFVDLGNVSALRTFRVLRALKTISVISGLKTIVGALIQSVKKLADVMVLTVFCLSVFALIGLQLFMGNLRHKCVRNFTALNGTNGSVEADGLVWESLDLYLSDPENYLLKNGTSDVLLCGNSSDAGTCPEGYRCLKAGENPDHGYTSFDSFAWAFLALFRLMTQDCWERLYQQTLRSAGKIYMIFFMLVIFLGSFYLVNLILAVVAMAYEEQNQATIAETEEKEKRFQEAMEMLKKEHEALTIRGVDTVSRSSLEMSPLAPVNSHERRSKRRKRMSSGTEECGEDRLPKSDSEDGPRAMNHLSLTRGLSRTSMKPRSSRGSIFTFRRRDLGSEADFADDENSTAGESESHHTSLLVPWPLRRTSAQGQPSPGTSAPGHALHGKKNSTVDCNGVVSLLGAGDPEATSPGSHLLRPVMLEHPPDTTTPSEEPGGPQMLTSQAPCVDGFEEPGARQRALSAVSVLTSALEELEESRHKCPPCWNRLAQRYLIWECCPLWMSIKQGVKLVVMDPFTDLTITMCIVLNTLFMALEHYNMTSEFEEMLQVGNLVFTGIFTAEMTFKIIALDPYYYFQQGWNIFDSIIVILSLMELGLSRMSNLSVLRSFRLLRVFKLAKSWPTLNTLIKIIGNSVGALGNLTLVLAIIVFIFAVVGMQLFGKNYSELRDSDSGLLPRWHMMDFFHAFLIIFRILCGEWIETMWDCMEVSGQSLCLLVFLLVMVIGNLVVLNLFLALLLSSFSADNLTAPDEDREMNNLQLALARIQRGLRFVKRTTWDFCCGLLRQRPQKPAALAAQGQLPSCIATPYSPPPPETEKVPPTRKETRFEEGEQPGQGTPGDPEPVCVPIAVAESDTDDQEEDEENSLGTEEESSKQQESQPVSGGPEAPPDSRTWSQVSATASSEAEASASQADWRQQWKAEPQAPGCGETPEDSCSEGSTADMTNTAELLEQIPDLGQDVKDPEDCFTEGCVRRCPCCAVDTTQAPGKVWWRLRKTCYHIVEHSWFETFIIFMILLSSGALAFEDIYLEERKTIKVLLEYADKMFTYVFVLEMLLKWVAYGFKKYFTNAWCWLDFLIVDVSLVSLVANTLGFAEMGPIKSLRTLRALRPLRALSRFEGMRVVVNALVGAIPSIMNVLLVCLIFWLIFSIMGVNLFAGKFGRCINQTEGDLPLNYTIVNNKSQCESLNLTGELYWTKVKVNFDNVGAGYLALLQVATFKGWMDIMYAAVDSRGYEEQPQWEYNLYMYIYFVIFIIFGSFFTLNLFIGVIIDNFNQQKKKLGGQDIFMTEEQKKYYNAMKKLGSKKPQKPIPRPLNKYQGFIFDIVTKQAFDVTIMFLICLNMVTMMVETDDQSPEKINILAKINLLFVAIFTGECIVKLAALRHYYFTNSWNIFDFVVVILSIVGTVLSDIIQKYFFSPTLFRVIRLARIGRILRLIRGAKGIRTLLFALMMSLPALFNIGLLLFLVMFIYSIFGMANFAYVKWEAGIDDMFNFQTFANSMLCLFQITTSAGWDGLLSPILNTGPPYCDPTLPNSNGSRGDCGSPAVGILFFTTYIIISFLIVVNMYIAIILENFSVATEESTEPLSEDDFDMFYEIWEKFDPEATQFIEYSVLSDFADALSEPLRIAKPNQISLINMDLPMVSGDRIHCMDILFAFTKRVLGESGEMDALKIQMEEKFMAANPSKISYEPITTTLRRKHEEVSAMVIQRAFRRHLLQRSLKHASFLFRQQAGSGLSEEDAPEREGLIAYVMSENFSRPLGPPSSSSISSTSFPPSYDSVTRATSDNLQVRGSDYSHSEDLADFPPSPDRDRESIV
Sequence of S. aureus DNA gyrase (P0A0K8 whole entry): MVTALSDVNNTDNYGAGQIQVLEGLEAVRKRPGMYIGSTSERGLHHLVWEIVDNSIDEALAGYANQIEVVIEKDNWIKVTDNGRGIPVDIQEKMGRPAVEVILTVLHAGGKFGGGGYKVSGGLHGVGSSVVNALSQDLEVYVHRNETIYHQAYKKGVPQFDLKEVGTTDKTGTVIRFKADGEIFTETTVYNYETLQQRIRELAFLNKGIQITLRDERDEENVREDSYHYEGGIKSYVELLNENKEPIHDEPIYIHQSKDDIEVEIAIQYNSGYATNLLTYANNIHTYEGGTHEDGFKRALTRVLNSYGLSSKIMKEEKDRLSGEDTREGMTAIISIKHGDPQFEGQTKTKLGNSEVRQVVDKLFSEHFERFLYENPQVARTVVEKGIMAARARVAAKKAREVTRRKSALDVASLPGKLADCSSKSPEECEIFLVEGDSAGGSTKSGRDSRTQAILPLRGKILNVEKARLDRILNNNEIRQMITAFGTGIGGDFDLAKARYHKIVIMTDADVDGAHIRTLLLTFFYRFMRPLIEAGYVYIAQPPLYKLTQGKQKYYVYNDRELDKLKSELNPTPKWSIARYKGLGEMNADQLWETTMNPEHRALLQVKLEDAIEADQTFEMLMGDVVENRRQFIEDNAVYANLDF
Sequence of S. aureus DNA gyrase (P20831 whole entry): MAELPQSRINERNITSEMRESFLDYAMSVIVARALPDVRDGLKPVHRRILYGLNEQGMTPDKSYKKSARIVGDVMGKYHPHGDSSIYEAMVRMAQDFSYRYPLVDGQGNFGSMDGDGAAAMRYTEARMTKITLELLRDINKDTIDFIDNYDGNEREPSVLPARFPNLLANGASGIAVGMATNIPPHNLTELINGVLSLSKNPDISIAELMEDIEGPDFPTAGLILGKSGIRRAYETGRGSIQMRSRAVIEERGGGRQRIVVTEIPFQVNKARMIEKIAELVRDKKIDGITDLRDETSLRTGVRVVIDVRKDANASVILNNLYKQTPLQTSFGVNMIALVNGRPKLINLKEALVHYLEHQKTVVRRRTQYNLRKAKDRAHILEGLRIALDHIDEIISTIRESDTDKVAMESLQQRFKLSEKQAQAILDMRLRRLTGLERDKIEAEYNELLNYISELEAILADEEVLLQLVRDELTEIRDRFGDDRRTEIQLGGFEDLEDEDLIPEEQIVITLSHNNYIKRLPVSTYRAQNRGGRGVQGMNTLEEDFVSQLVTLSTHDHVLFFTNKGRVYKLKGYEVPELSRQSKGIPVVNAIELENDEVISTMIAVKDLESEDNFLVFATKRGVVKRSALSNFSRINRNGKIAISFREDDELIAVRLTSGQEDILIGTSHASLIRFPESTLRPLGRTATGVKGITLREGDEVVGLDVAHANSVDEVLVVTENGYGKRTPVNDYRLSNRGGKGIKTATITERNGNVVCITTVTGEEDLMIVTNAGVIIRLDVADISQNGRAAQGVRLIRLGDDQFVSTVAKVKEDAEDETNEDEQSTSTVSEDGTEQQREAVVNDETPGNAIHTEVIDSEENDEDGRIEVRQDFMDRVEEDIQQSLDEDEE
T2 sequence (P10635 whole entry): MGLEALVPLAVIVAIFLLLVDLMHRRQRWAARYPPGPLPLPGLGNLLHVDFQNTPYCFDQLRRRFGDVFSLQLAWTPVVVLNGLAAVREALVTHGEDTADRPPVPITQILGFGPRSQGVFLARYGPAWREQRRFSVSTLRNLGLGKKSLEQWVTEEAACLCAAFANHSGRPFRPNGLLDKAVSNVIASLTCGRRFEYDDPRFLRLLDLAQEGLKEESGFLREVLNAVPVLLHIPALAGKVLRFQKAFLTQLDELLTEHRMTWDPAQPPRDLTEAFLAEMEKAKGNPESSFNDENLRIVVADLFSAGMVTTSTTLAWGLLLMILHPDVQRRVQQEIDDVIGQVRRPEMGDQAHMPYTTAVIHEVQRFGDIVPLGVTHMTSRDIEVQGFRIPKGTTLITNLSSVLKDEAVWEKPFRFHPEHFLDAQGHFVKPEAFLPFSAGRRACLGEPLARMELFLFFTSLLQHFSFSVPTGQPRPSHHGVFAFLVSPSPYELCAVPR
Sequence of Histamine H2 (P25021 whole entry): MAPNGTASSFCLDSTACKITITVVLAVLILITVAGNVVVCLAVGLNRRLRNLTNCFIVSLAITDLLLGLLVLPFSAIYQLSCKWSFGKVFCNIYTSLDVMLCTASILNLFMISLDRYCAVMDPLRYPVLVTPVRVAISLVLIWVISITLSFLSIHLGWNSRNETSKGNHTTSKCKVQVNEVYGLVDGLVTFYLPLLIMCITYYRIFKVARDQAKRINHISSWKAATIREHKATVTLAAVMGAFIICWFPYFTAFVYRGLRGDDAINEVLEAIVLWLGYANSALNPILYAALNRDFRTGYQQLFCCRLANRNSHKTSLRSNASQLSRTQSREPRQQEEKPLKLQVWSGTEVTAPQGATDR

## COc1ccc2ncc(F)c(CC[C@@]3(O)CO[C@@H]4[C@@H](NCc5cc6c(cn5)OCCO6)CO[C@@H]43)c2n1 [Compound 6, (3R, 3aS,6S,6aR)-6-(((2,3-dihydro-[1,4]dioxino[2,36-c]pyridin-7-yl)methyl)amnino)-3-(2-(3-fluoro-6-methoxy-1,5-naphthyridin-4-yl)ethyl)hexahydrofuro[3,2-b]furan-3-ol]
[1]; human liver microsomes, pH 7.4, probe midazolam (midazolam hydroxylase activity), Exp. 1, read-out: CYP3A4 (midazolam hydroxylase) % of control (Exp. 1)
  activity at 3 µM: 74.3%
[1]; human liver microsomes, pH 7.4, probe midazolam (midazolam hydroxylase activity), Exp. 2, read-out: CYP3A4 (midazolam hydroxylase) % of control (Exp. 2)
  activity at 3 µM: 77.2%
[1]; human liver microsomes, pH 7.4, probe midazolam (midazolam hydroxylase activity), Exp. 3, read-out: CYP3A4 (midazolam hydroxylase) % of control (Exp. 3)
  activity at 3 µM: 60.4%
[1]; human liver microsomes, pH 7.4, probe midazolam (midazolam hydroxylase activity), 10 μM, Exp. 3, read-out: CYP3A4 (midazolam hydroxylase) % of control (Exp. 3)
  activity at 10 µM: 74.5%
[1]; [12]
  activity at 0.1 µM: 116%
  activity at 0.3 µM: 89.9%
  activity at 1 µM: 60.4%
[1]; [13]
  activity at 0.1 µM: 108%
  activity at 0.3 µM: 113%
  activity at 1 µM: 89.8%
[1]; [14]
  activity at 0.1 µM: 97%
  activity at 0.3 µM: 99.2%
  activity at 1 µM: 89.9%
[1]; liver microsomes, pH 7.4, probe midazolam, 10 μM, Exp. 1, read-out: CYP3A4 (midazolam hydroxylase) % of control (Exp. 1)
  activity at 10 µM: 49.5%
[1]; liver microsomes, pH 7.4, probe midazolam, 10 μM, Exp. 2, read-out: CYP3A4 (midazolam hydroxylase) % of control (Exp. 2)
  activity at 10 µM: 82.3%
[1]; liver microsomes, pH 7.4, probe midazolam, 10 μM, screening assay
  inhibition at 10 µM: 56%
[1]; liver microsomes, pH 7.4, probe midazolam, concentration-response assay in triplicate
  IC50: > 10000 nM
[2]
  CYP2D6 inhibition: Less than 50%
[3]
  MIC: 1 µg/mL (≈ 2.01 µM)
[4]
  hERG IC50 higher than benzodioxine 24: ca. 3 fold
[5]
  IC50: 530 nM
[6]
  MIC: 64 µg/mL (≈ 128 µM)
[7]; 3 μM
  Navi1.5 Late (agonist - activation of late current): 3.4%
[7]; 30 μM
  Navi1.5 Late (agonist - activation of late current): 7.7%
[7]; 100 μM
  Navi1.5 Late (agonist - activation of late current): 17.0%
[8]
  inhibition at 100 µM: 68%
[9]
  MIC: 1 µg/mL (≈ 2.01 µM)
[10]
  MIC: 0.25 µg/mL (≈ 0.501 µM)
[11]
  inhibition at 100 µM: 51%
